Data reported in US20240024466A1, “LIPIDOID COMPOSITIONS AND METHODS OF USE THEREOF” (Trustees of Tufts College, priority 2020, published 2024).

Key:
B16F10 tumor = test: Treatment of B16F10 tumor by in situ vaccination; assay type: in vivo, C57BL/6 mice; conditions: DOX day 0, second and third injection day 1 and 5, intratumoral
STING pathway [1] = test: In vivo ifnb1 and cxcl10 gene expression in tumors by RT PCR; design: species or system C57BL/6 mice; conditions: intratumoral, one day after DOX injection, 6 h post second injection
B16F10 tumors = test: Immunocellular composition of the tumor microenvironment (flow cytometry); conditions: 48 h after the second injection
Procedure: To further evaluate the changes of the cellular composition after the treatment, the tumors were collected at 48 h after the second injection. The tumors were dissociated to single cells, stained with antibodies, and analyzed by the flowcytometry (FIG. 11).
After 48 h post the second injection, the tumors were collected and suspended to single cell solutions by 40 μm strainer (Thermo-Fisher). The cells were collected, washed with PBS, and stained with fluorescent antibodies of CD4 (APC-Cy7), CD8a (PE-Cy5), CD45 (PE), CD3e (FITC), F4/80 (APC), and CD11c (APC) in Flow Cytometry Staining Buffer (eBioscience). Fluorescent signal was measured using LSR-II flow cytometer (BD Biosciences). The data was analyzed by FlowJo-v10.

STING pathway [2] = test: In vitro ifnb1 and cxcl10 gene expression by RT PCR; assay type: cell-based; conditions: DC2.4, 150 nM cGAMP, 4 h
STING pathway [3] = test: as above; assay type: cell-based; conditions: RAW264.7, 150 nM cGAMP, 4 h
draining lymph nodes = test: In vivo mRNA delivery, luciferase mRNA expression in draining lymph nodes; conditions: adjuvant incorporated into the LNP
dengue virus = test: nAb response to a protein-based dengue virus vaccine with TLR ligands; conditions: in vivo
Text: The two TLR ligands individually will be produced and in combination into mRNA-LNPs and test if they enhance nAb response and reduce antibody-dependent enhancement. The mechanisms underlying the enhanced nAb response will be investigated for further adjuvant optimization.

C57BL/6 mice = test: OVA prime-boost immunization with LNP formulations, antibody response by ELISA; conditions: rough library screening, OVA formulated with LNPs, injections at day 1 and day 14, FIG. 7B
BALB/c mice = conditions: s.c., IVIS 5 h after second injection

`COc1cccc2c1C(=O)c1c(O)c3c(c(O)c1C2=O)C[C@@](O)(C(=O)CO)C[C@@H]3O[C@H]1C[C@H](N)[C@H](O)[C@H](C)O1` [DOX, doxorubicin] was tested, and the “tumor growth inhibition (tumor volumes)” value (B16F10 tumor) was “slight inhibition”, the “expression of ifnb1 and cxcl10 genes in B16F10 tumors” value (STING pathway [1]) was “did not changed significantly” and the “population of CD4+ and CD8+ T cells at tumor sites” value (B16F10 tumors) was “did not make significant changes”.

`Nc1nc2c(ncn2[C@@H]2O[C@@H]3COP(=O)(O)O[C@H]4[C@@H](O)[C@H](n5cnc6c(N)ncnc65)O[C@@H]4COP(=O)(O)O[C@@H]2[C@@H]3O)c(=O)[nH]1` [cGAMP, 2′5′-3′5′ cyclic guanosine monophosphate-adenosine monophosphate] was tested, and the “expression of ifnb1 gene compared with PBS-treated cells” value (STING pathway [2]) was “modest increase”, the “expression of ifnb1 and cxcl10 genes in B16F10 tumors” value (STING pathway [1]) was “modest increase” and the “population of CD4+ and CD8+ T cells at tumor sites” value (B16F10 tumors) was “increasement”. For the same molecule, the “expression of ifnb1 gene compared with PBS-treated cells” value (STING pathway [3]) was “modest increase”.

In the case of Pam3CSK4, the “expression of luciferase mRNA in draining lymph nodes” value (draining lymph nodes) is reported as “increased” and the “nAb responses to a protein-based dengue virus vaccine” value (dengue virus) is reported as “dramatically augment”.

For lipopolysaccharide [LPS], the IgG1 antibody response (C57BL/6 mice) was “extremely positive”.

With poly I:C the “nAb responses to a protein-based dengue virus vaccine” value (dengue virus) was “dramatically augment”.

B1: ovalbumin (protein, UniProt P01012 2-386, looked up)
Ovalbumin: GSIGAASMEFCFDVFKELKVHHANENIFYCPIAIMSALAMVYLGAKDSTRTQINKVVRFDKLPGFGDSIEAQCGTSVNVHSSLRDILNQITKPNDVYSFSLASRLYAEERYPILPEYLQCVKELYRGGLEPINFQTAADQARELINSWVESQTNGIIRNVLQPSSVDSQTAMVLVNAIVFKGLWEKAFKDEDTQAMPFRVTEQESKPVQMMYQIGLFRVASMASEKMKILELPFASGTMSMLVLLPDEVSGLEQLESIINFEKLTEWTSSNVMEERKIKVYLPRMKMEEKYNLTSVLMAMGITDVFSSSANLSGISSAESLKISQAVHAAHAEINEAGREVVGSAEAGVDAASVSEEFRADHPFLFCIKHIATNAVLFFGRCVSP
For B1, the IgG1 antibody response (C57BL/6 mice) was “very low antibody response”.

B2: OVA^Alexa-647: Alexa Fluor 647-conjugated OVA, model antigen (protein, UniProt P01012 2-386, looked up)
Ovalbumin: GSIGAASMEFCFDVFKELKVHHANENIFYCPIAIMSALAMVYLGAKDSTRTQINKVVRFDKLPGFGDSIEAQCGTSVNVHSSLRDILNQITKPNDVYSFSLASRLYAEERYPILPEYLQCVKELYRGGLEPINFQTAADQARELINSWVESQTNGIIRNVLQPSSVDSQTAMVLVNAIVFKGLWEKAFKDEDTQAMPFRVTEQESKPVQMMYQIGLFRVASMASEKMKILELPFASGTMSMLVLLPDEVSGLEQLESIINFEKLTEWTSSNVMEERKIKVYLPRMKMEEKYNLTSVLMAMGITDVFSSSANLSGISSAESLKISQAVHAAHAEINEAGREVVGSAEAGVDAASVSEEFRADHPFLFCIKHIATNAVLFFGRCVSP
modifications: Alexa Fluor 647 label
B2 was tested, and the “distribution of OVA^Alexa-647 fluorescence signal” value (BALB/c mice) was “mainly distributed in bladder”.
